{"source": "patent US10004718B2", "about": "“Erythropoietin expression promoter” (TOHOKU UNIVERSITY, priority 2012, dated 2018)", "key": {"[1]": {"system": "MCA (middle cerebral artery) occlusion mouse models", "experiment": "Cerebral ischemic injury, MCA occlusion mouse model (TTC staining)", "type": "in vivo", "settings": "40 mg/kg intraperitoneal 4 hours before ischemia, 24 hours after reperfusion, vs DMSO, n=1", "experimental": "Two types of compounds (compounds #4 and 35) (40 mg/kg of mouse body weight) were each intraperitoneally administered to a mouse 4 hours before ischemia (n=1). A vehicle (DMSO) was administered to a control (n=1). Anesthesia was induced in each mouse with 4% halothane and oxygen and maintained by the intraperitoneal administration of ketamine (40 mg/kg) and xylazine (4 mg/kg) at 30-minute intervals. After the induction of systemic anesthesia, bifurcation of the common carotid artery was exposed under a microscope. A 6-0 nylon thread having a silicon-coated tip was inserted from the internal carotid artery toward the central side so that its tip reached the anterior communicating artery. The common carotid artery was further ligated to block blood flow into the middle cerebral artery. After the ischemic burden for 30 minutes, the nylon thread was removed so that the ligated common carotid artery was released to induce reperfusion.\n24 hours after the reperfusion, each mouse was cervically dislocated and then decapitated to excise the brain. Five coronal sections of the cerebrum having a thickness of 2 mm were prepared from the boundary between the cerebrum and the cerebellum. The coronal sections of the cerebrum were stained with TCC through a reaction at 37° C. for 20 minutes with a TTC solution diluted to 1.5% with PBS. […]"}, "erythropoietin": {"system": "erythropoietin", "experiment": "Erythropoietin production in vivo in mice, oral administration for 7 days", "set-up": "species or system mouse", "settings": "7 consecutive days, plasma 24 hours after final administration, vs corn oil, DMSO+corn oil or no administration", "experimental": "A mixed solution (200 μl) of each of 4 types of compounds (compounds #4, 5, 21, and 35) (10 mg/100 μl of DMSO) (10 μl) and corn oil (190 μl) was prepared. This mixed solution (200 μl) was orally administered to each mouse (C57BL/6N 8 W, male, 21-25 g) between 15:00 to 18:00 every day using a sonde. This administration was carried out for 7 consecutive days. Mice orally given corn oil or DMSO and corn oil as well as non-administered mice were used as controls.\n24 hours after the final administration, each mouse was cervically dislocated, and 500 μl of blood was collected from the heart. Then, an anticoagulant (10 μl of heparin) was added thereto, and the resulting blood was centrifuged (12000 rpm×20 min, 4° C.) to isolate plasma. The plasma concentration […] of erythropoietin was measured using a kit (Quantikine Mouse/Rat Epo Immunoassay, manufactured by R&D Systems, Inc.)."}, "Leigh cells": {"system": "Leigh cells", "experiment": "Cell death caused by oxidative stress (BSO) in Leigh syndrome patient fibroblasts", "type": "cell-based, human", "settings": "compound 10 μM, 4 days after BSO treatment", "experimental": "In Examples 2 to 7 and Reference Example 1 below, an erythropoietin-producing human hepatocellular carcinoma cell Hep3B (obtained from ATCC [American Type Culture Collection]) was cultured and maintained under conditions of 5% CO2/20% O2 and 37° C. in an RPMI1640 (manufactured by Life Technologies, Inc./GIBCO) medium containing 100 U/mL penicillin (manufactured by Life Technologies, Inc./GIBCO), 100 μg/mL streptomycin (manufactured by Life Technologies, Inc./GIBCO), and 10% fetal bovine serum (FBS) (manufactured by Life Technologies, Inc./GIBCO) (hereinafter, referred to as “RPMI1640 common medium 1”). In Example 15 below, Leigh syndrome patients were subjected to skin biopsy to obtain skin fibroblast cells, which were then primarily cultured under conditions of 5% CO2/20% O2 and 37° C. in a DMEM low glucose (manufactured by Life Technologies, Inc./GIBCO) medium containing 100 U/mL penicillin (manufactured by Life Technologies, Inc./GIBCO), 100 μg/mL streptomycin (manufactured by Life Technologies, Inc./GIBCO), and 1% FBS (manufactured by Life Technologies, Inc./GIBCO) (hereinafter, referred to as “DMEM low glucose common medium”) to isolate cells (Leigh cells). In Example 13 below, a human kidney-derived cell line HK-2 (obtained from ATCC) was cultured and maintained under conditions of 5% CO2/20% O2 and 37° C. in a DMEM/F12 (manufactured by Life Technologies, Inc./GIBCO) medium containing 100 U/mL penicillin (manufactured by Life Technologies, Inc./GIBCO), 100 μg/mL streptomycin (manufactured by Life Technologies, Inc./GIBCO), and 10% fetal bovine serum (manufactured by Life Technologies, Inc./GIBCO) (hereinafter, referred to as “DMEM/F12 common medium”). In Example 14 below, a rat islet of Langerhans-derived cell line ISN-1e (kindly provided by Hisamitsu Ishihara, Nihon University School of Medicine) was cultured and maintained under conditions of 5% CO2/20% O2 and 37° C. in an RPMI1640 (manufactured by Life Technologies, Inc./GIBCO) medium containing 10 mM HEPES (manufactured by Sigma-Aldrich Corp.), 2 mM glutamine (manufactured by Sigma-Aldrich Corp.), 50 μM β-mercaptoethanol (manufactured by Sigma-Aldrich Corp.), 100 U/mL penicillin (manufactured by Life Technologies, Inc./GIBCO), 100 μg/mL streptomycin (manufactured by Life Technologies, Inc./GIBCO), and 10% FBS (manufactured by Life Technologies, Inc./GIBCO) (hereinafter, referred to as “RPMI1640 common medium 2”).\nThe Leigh cells were seeded at 4×10^4 cells/well to a 24-well cell culture plate and then cultured for 24 hours. The glutathione synthesis inhibitor BSO (L-buthionine sulphoximine) (manufactured by Sigma-Aldrich Corp.) was mixed at […] into a medium. After culture for 24 hours in the presence of BSO, each of 5 types of compounds (compounds #2, 4, 5, 21, and 35) was mixed at 10 μM into the medium. After culture for 4 days in the presence of these 5 types of compounds, the number of live cells was measured using Cell Counting Kit-8 (manufactured by Dojindo Laboratories) to calculate the survival rate of the cells (“BSO+#2”, “BSO+#4”, “BSO+#5”, “BSO+#21”, and “BSO+#35” of FIG. 17). […]"}, "HIF-α": {"system": "HIF-α", "experiment": "HIF-α concentration in Hep3B cells (Total HIF-1α Cell-Based ELISA)", "set-up": "species or system human", "settings": "compound 10 μM, 20% O2, 24 hours", "experimental": "The Hep3B cells were seeded at 1×10^4 cells/well to a 24-well cell culture plate and then cultured under normal oxygen (20% O2) for 24 hours. Each of 3 types of compounds (compounds #4, 21, and 35) was mixed at a concentration of 10 μM into RPMI1640 common medium 1. After further culture under normal oxygen (20% O2) for 24 hours, the concentration of HIF-α produced in the medium was measured using Total HIF-1 α Cell-Based ELISA Kit (manufactured by R&D Systems, Inc.). Hep3B cells cultured in the absence of the compound (DMSO added [1%]) (“Control” of FIG. 5) were used as a negative control. Hep3B cells cultured in the presence of HIF activators (FG-4592 [10 μM], DMOG [10 μM], and ciclopirox[10 μM]) (“FG”, “DMOG”, and “Ciclo”, respectively, of FIG. 5) were used as positive controls."}}, "data": [{"smiles": "COc1cc(COc2ccc3[nH]cc(CC(=O)O)c3c2)cc(OC)c1", "note": "[compound #35, 5-(3,5-Dimethoxybenzyloxy)-3-indoleacetic acid]", "values": [{"measurement": "volume of the cerebral infarction site", "setting": "[1]", "value": "decreased"}, {"measurement": "amount of erythropoietin in the mouse blood", "setting": "erythropoietin", "value": "increased"}, {"measurement": "cell death of the Leigh cells by BSO", "setting": "Leigh cells", "value": "efficiently suppress the cell death"}, {"measurement": "HIF-α concentration in the Hep3B cells", "setting": "HIF-α", "value": "increase the HIF-α concentration"}]}]}
